Measurements as given in ChEMBL document CHEMBL5143632, “Arylalkynyl amide-type peroxisome proliferator-activated receptor γ (PPARγ)-selective antagonists covalently bind to the PPARγ ligand binding domain with a unique binding mode” (Bioorg Med Chem Lett, 2022).
Calls of active or inactive are those of the source. The rule behind the calls is not given here.

Columns and labels:
[1] = molecular target: T1, Peroxisome proliferator-activated receptor gamma (Homo sapiens) (UniProt P37231); assay: Covalent binding affinity to apo PPARgamma ligand binding domain (unknown origin) assessed as adduct formation incubated for 24 hrs by ESI-MS analysis
T1 sequence (whole entry): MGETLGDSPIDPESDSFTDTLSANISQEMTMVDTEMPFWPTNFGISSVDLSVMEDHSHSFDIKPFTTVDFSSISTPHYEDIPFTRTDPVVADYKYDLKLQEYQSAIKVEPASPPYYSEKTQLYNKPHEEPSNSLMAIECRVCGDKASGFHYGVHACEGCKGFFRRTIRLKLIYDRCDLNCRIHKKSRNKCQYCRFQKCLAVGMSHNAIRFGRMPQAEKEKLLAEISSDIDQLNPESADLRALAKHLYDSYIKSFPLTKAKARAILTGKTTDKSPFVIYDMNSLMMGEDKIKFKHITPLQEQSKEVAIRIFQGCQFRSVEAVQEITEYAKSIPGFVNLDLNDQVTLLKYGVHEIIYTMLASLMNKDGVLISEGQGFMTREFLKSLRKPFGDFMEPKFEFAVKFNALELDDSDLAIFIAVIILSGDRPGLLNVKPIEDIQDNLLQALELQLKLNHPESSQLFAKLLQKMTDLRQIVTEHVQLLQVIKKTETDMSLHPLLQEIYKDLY

[2] = molecular target: T1, Peroxisome proliferator-activated receptor gamma (Homo sapiens); assay: Covalent binding affinity to apo PPARgamma ligand binding domain (unknown origin) assessed as adduct formation measured within few minutes by ESI-MS analysis

| SMILES | Activity [1] | Activity [2] |
| --- | --- | --- |
| COc1ccc(NC(=O)C#Cc2ccccc2)cc1CNC(=O)c1ccc(N2CCCCC2)cc1 | Active |  |
| CCCOc1ccc(NC(=O)C#Cc2ccccc2)cc1CNC(=O)c1ccc(-c2ncccn2)cc1 | Active |  |
| O=C(Nc1ccccc1)c1cc([N+](=O)[O-])ccc1Cl |  | Active |
